Measurements taken from patent publication US12679878B2, “CRF2 receptor agonists and their use in therapy” (SANOFI, priority 2020, dated 2026).
Starred links: 1 amine or outer side, 2 acyl side, 3 side chain; linkers in the order of their positions; H or OH if unused. Non-standard residues stand in square brackets, D forms with d. Residues, ends and D or L forms follow the SMILES beside them. Groups on a side chain read outwards from the residue. *: point of attachment. C18 diacid = O=C(O)CCCCCCCCCCCCCCCCC(=O)*; γGlu = O=C(O)[C@H](CCC(=O)[*:2])N[*:1]; Palmitoyl = CCCCCCCCCCCCCCCC(=O)*; AEEA = NCCOCCOCC(=O)O; Aib = CC(C)(N)C(=O)O

Target: T1, human CRF2α receptor (Homo sapiens, UniProt Q13324)
T1 construct: expressed in transfected cells; host or cells: TeloHEAC
T1 sequence (Q13324 1-411): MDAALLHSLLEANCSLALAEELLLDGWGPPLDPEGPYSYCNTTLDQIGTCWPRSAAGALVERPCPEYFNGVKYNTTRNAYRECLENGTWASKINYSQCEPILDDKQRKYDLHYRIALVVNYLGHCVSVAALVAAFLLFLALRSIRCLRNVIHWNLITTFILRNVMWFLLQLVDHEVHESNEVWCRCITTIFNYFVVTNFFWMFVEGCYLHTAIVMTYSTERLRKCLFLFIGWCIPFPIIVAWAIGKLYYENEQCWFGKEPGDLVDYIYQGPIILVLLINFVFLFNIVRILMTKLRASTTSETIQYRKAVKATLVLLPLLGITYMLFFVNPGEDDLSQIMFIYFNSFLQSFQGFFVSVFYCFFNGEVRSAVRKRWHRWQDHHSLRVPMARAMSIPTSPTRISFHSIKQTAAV
Assay: cAMP agonism at human CRF2 α receptor in TeloHEAC cells (Example 7)
Format: cell-based
Details: cAMP HTRF, TeloHEAC cells stably expressing human CRF2 α, 0% HSA; read-out: EC50 [nM], 0% HSA
Experimental: Agonism of compounds for human corticotropin-releasing factor 2α (CRF2 α receptor) was determined by functional assays measuring CAMP response of a TeloHEAC cell line stably expressing human CRF2 α receptor.
Cells were grown in a T175 culture flask placed at 37° C. to near confluence in medium (DMEM/10% FBS) and collected in 2 ml vials in cell culture medium containing 10% DMSO in a concentration of 10-50 million cells/ml. Each vial contained 1.8 ml cells. The vials were slowly frozen to −80° C. in isopropanol and then transferred in liquid nitrogen for storage. Prior to use, frozen cells were thawed quickly at 37° C. and washed (5 min at 900 rpm) with 20 ml cell buffer (1×HBSS; 20 mM HEPES; 0% or 0.1% HSA). Cells were resuspended in assay buffer (cell buffer plus 2 mM IBMX) and adjusted to a cell density of 1 million cells/ml. For measurement, 5 μl cells (final […]) and 5 μL of test compound were added to a 384-well plate, followed by incubation for 30 minutes at room temperature.
The CAMP content of cells was determined using a kit from Cisbio Corp. (cat. no. 62AM4PEC) based on HTRF (Homogenous Time Resolved Fluorescence). After addition of HTRF reagents diluted in lysis buffer (kit components), the plates were incubated for 1 h, followed by measurement of the fluorescence ratio at 665/620 nm. The percent activity value (E %) was calculated by setting 1000 nM of urocortin 2 (UCN2) as 100%. The in vitro potency of the compounds was quantified by determining the concentrations that caused 50% activation of maximal response (EC50).

| Compound | EC50 |
| --- | --- |
| CCCCCCCCCCCCCCCC(=O)N[C@@H](CCC(=O)NCCCC[C@H](NC(=O)[C@H](CC(C)C)NC(=O)CNC(=O)[C@@H](NC(=O)[C@@H]1CCCN1C(=O)[C@@H](NC(=O)[C@H](CC(=O)O)NC(=O)[C@H](CC(C)C)NC(=O)[C@H](CO)NC(=O)[C@H](CC(C)C)NC(=O)[C@@H](NC(=O)[C@@H](N)[C@@H](C)CC)C(C)C)C(C)C)[C@@H](C)CC)C(=O)N[C@@H](CCC(N)=O)C(=O)N[C@H](C(=O)N[C@@H](CC(C)C)C(=O)N[C@@H](CC(C)C)C(=O)N[C@@H](CCC(=O)O)C(=O)N[C@@H](CCC(N)=O)C(=O)N[C@@H](CCC(=O)O)C(=O)N[C@@H](CCCCN)C(=O)N[C@@H](CCC(N)=O)C(=O)N[C@@H](CCC(=O)O)C(=O)N[C@@H](CCCCN)C(=O)N[C@@H](CCC(=O)O)C(=O)N[C@@H](CCCCN)C(=O)N[C@@H](CCC(N)=O)C(=O)N[C@@H](CCC(N)=O)C(=O)N[C@@H](C)C(=O)N[C@@H](CCC(=O)O)C(=O)N[C@H](C(=O)N[C@@H](CC(N)=O)C(=O)N[C@@H](C)C(=O)N[C@@H](CCC(N)=O)C(=O)N[C@H](C(=O)N[C@@H](CC(C)C)C(=O)N[C@@H](C)C(=O)N[C@@H](CCC(N)=O)C(=O)N[C@H](C(N)=O)C(C)C)[C@@H](C)CC)[C@@H](C)O)[C@@H](C)CC)C(=O)O [compound 1] (H-IVLSLDVPIGLK([γGlu-Palmitoyl])QILLEQEKQEKEKQQAETNAQILAQV-NH2; N-terminus assumed) | 0.01 nM |
| CCCCCCCCCCCCCCCC(=O)N[C@@H](CCC(=O)NCCCC[C@H](NC(=O)[C@H](CC(C)C)NC(=O)[C@H](CCCCN)NC(=O)[C@@H](NC(=O)[C@@H]1CCCN1C(=O)[C@H](NC(=O)[C@H](CC(=O)O)NC(=O)[C@H](CC(C)C)NC(=O)[C@H](CO)NC(=O)[C@H](CC(C)C)NC(=O)[C@@H](NC(=O)[C@@H](N)[C@@H](C)CC)C(C)C)C(C)C)[C@@H](C)O)C(=O)N[C@@H](CCC(N)=O)C(=O)N[C@@H](CCCCN)C(=O)N[C@@H](CC(C)C)C(=O)N[C@@H](CC(C)C)C(=O)N[C@@H](CCCCN)C(=O)N[C@@H](CCC(N)=O)C(=O)N[C@@H](CCC(=O)O)C(=O)N[C@@H](CCCNC(=N)N)C(=O)N[C@@H](CCC(N)=O)C(=O)N[C@@H](CCCNC(=N)N)C(=O)N[C@@H](CCCCN)C(=O)N[C@@H](CCC(=O)O)C(=O)N[C@@H](CCCNC(=N)N)C(=O)N[C@@H](CCC(=O)O)C(=O)N[C@@H](CCC(N)=O)C(=O)N[C@@H](C)C(=O)N[C@@H](CCC(=O)O)C(=O)N[C@@H](CCCCN)C(=O)N[C@@H](CC(N)=O)C(=O)NC(C)(C)C(=O)N[C@@H](CCCNC(=N)N)C(=O)N[C@H](C(=O)N[C@@H](CC(C)C)C(=O)N[C@@H](CCC(=O)O)C(=O)N[C@@H](CCCNC(=N)N)C(=O)N[C@H](C(N)=O)C(C)C)[C@@H](C)CC)C(=O)O [compound 31] (H-IVLSLD[dV]PTKLK([γGlu-Palmitoyl])QKLLKQERQRKEREQAEKN[Aib]RILERV-NH2; N-terminus assumed) | 0.01 nM |
| CCCCCCCCCCCCCCCC(=O)N[C@@H](CCC(=O)NCCCC[C@H](NC(=O)[C@H](CC(C)C)NC(=O)[C@H](CCCCN)NC(=O)[C@@H](NC(=O)[C@@H]1CCCN1C(=O)[C@H](NC(=O)[C@H](CC(=O)O)NC(=O)[C@H](CC(C)C)NC(=O)[C@H](CO)NC(=O)[C@H](CC(C)C)NC(=O)[C@@H](NC(=O)[C@@H](N)[C@@H](C)CC)C(C)C)C(C)C)[C@@H](C)O)C(=O)N[C@@H](CCC(N)=O)C(=O)N[C@@H](CCCCN)C(=O)N[C@@H](CC(C)C)C(=O)N[C@@H](CC(C)C)C(=O)N[C@@H](CCCCN)C(=O)N[C@@H](CCC(N)=O)C(=O)N[C@@H](CCC(=O)O)C(=O)N[C@@H](CCCNC(=N)N)C(=O)N[C@@H](CCC(N)=O)C(=O)N[C@@H](CCCNC(=N)N)C(=O)N[C@@H](CCCCN)C(=O)N[C@@H](CCC(=O)O)C(=O)N[C@@H](CCCNC(=N)N)C(=O)N[C@@H](CCC(=O)O)C(=O)N[C@@H](CCC(N)=O)C(=O)N[C@@H](C)C(=O)N[C@@H](CCC(=O)O)C(=O)N[C@@H](CCCCN)C(=O)N[C@@H](CC(N)=O)C(=O)N[C@H](C(=O)N[C@@H](CCCNC(=N)N)C(=O)N[C@H](C(=O)N[C@@H](CC(C)C)C(=O)N[C@@H](CCC(=O)O)C(=O)N[C@@H](CCCNC(=N)N)C(=O)N[C@H](C(N)=O)C(C)C)[C@@H](C)CC)[C@@H](C)O)C(=O)O [compound 33] (H-IVLSLD[dV]PTKLK([γGlu-Palmitoyl])QKLLKQERQRKEREQAEKNTRILERV-NH2) | 0.2 nM |
| CC[C@H](C)[C@H](NC(=O)[C@H](CCC(N)=O)NC(=O)[C@H](CCCCN)NC(=O)[C@H](CC(N)=O)NC(=O)[C@@H](NC(=O)[C@H](CCCCN)NC(=O)[C@H](C)NC(=O)[C@H](CCCCN)NC(=O)[C@H](CCC(N)=O)NC(=O)[C@H](CCCNC(=N)N)NC(=O)[C@H](CCC(N)=O)NC(=O)[C@H](CCCCN)NC(=O)[C@H](CCCCN)NC(=O)[C@H](CCC(N)=O)NC(=O)[C@H](CCCCN)NC(=O)[C@H](CCC(=O)O)NC(=O)[C@H](CCC(N)=O)NC(=O)[C@H](CCCCN)NC(=O)[C@H](CC(C)C)NC(=O)[C@H](CC(C)C)NC(=O)[C@H](CCCCN)NC(=O)[C@H](CCC(N)=O)NC(=O)[C@H](CCCCNC(=O)COCCOCCNC(=O)COCCOCCNC(=O)CC[C@H](NC(=O)CCCCCCCCCCCCCCCCC(=O)O)C(=O)O)NC(=O)[C@@H](NC(=O)[C@H](CCCCN)NC(=O)[C@@H](NC(=O)[C@@H]1CCCN1C(=O)[C@@H](NC(=O)[C@H](CC(=O)O)NC(=O)[C@H](CC(C)C)NC(=O)[C@H](CO)NC(=O)[C@H](CC(C)C)NC(=O)[C@@H](NC(=O)[C@@H](N)Cc1ccccc1)[C@@H](C)O)C(C)C)[C@@H](C)O)[C@@H](C)CC)[C@@H](C)O)C(=O)N[C@@H](CC(C)C)C(=O)N[C@@H](CCC(=O)O)C(=O)N[C@@H](CCC(N)=O)C(=O)N[C@H](C(N)=O)C(C)C [compound 34] (H-FTLSLDVPTKIK([AEEA-AEEA-γGlu-C18 diacid])QKLLKQEKQKKQRQKAKTNKQILEQV-NH2; N-terminus assumed) | 6.88 nM |
| CC[C@H](C)[C@H](N)C(=O)N[C@H](C(=O)N[C@@H](CC(C)C)C(=O)N[C@@H](CO)C(=O)N[C@@H](CC(C)C)C(=O)N[C@@H](CC(=O)O)C(=O)N[C@H](C(=O)N1CCC[C@H]1C(=O)N[C@H](C(=O)N[C@@H](CCCCN)C(=O)N[C@@H](CC(C)C)C(=O)N[C@@H](CCCCNC(=O)COCCOCCNC(=O)COCCOCCNC(=O)CC[C@H](NC(=O)CCCCCCCCCCCCCCCCC(=O)O)C(=O)O)C(=O)N[C@@H](CCC(N)=O)C(=O)N[C@@H](CCCCN)C(=O)N[C@@H](CC(C)C)C(=O)N[C@@H](CC(C)C)C(=O)N[C@@H](CCCCN)C(=O)N[C@@H](CCC(N)=O)C(=O)N[C@@H](CCC(=O)O)C(=O)N[C@@H](CCCNC(=N)N)C(=O)N[C@@H](CCC(N)=O)C(=O)N[C@@H](CCCNC(=N)N)C(=O)N[C@@H](CCCCN)C(=O)N[C@@H](CCC(=O)O)C(=O)N[C@@H](CCCNC(=N)N)C(=O)N[C@@H](CCC(N)=O)C(=O)N[C@@H](CCC(N)=O)C(=O)N[C@@H](C)C(=O)N[C@@H](CCC(=O)O)C(=O)N[C@H](C(=O)N[C@@H](CC(N)=O)C(=O)N[C@@H](CCCCN)C(=O)N[C@@H](CCCNC(=N)N)C(=O)N[C@H](C(=O)N[C@@H](CC(C)C)C(=O)N[C@@H](CCC(=O)O)C(=O)N[C@@H](CCCNC(=N)N)C(=O)N[C@H](C(N)=O)C(C)C)[C@@H](C)CC)[C@@H](C)O)[C@@H](C)O)C(C)C)C(C)C [compound 37] (H-IVLSLDVPTKLK([AEEA-AEEA-γGlu-C18 diacid])QKLLKQERQRKERQQAETNKRILERV-NH2; N-terminus assumed) | 1.6 nM |
